Laboratory results from ChEMBL document CHEMBL3856199, “Melanoma-targeted delivery system (part 2): Synthesis, radioiodination and biological evaluation in B16F0 bearing mice” (Eur J Med Chem, 2016).

Columns and labels:
[1] = Ratio of drug uptake in tumor to muscle in C57BL/6J mouse implanted with mouse B16F0 cells at 3.7 MBq, iv measured at 6 hrs post injection; assay type: ADME, organism-based; details: in vivo
[2] = Drug uptake in tumor of C57BL/6J mouse implanted with mouse B16F0 cells at 3.7 MBq, iv measured at 6 hrs post injection by gamma counting analysis; assay type: ADME, organism-based, Neoplasm; details: in vivo
[3] = Ratio of drug uptake in tumor to muscle in C57BL/6J mouse implanted with mouse B16F0 cells at 3.7 MBq, iv measured at 24 hrs post injection; assay type: ADME, organism-based; details: in vivo
[4] = Drug uptake in blood of C57BL/6J mouse implanted with mouse B16F0 cells at 3.7 MBq, iv measured at 3 hrs post injection by gamma counting analysis; assay type: ADME, organism-based; details: in vivo
[5] = Drug uptake in bladder of C57BL/6J mouse implanted with mouse B16F0 cells at 3.7 MBq, iv measured at 1 hr post injection by scintigraphic imaging analysis; assay type: ADME, organism-based, Urinary bladder; details: in vivo
[6] = Drug uptake in eyes of C57BL/6J mouse implanted with mouse B16F0 cells at 3.7 MBq, iv measured at 72 hrs post injection by gamma counting analysis; assay type: ADME, organism-based, Eye; details: in vivo
[7] = Drug uptake in tumor of C57BL/6J mouse implanted with mouse B16F0 cells at 3.7 MBq, iv measured at 3 hrs post injection by gamma counting analysis; assay type: ADME, organism-based, Neoplasm; details: in vivo
[8] = Drug uptake in eyes of C57BL/6J mouse implanted with mouse B16F0 cells at 3.7 MBq, iv measured at 1 hr post injection by gamma counting analysis; assay type: ADME, organism-based, Eye; details: in vivo
[9] = Ratio of drug uptake in tumor to blood in C57BL/6J mouse implanted with mouse B16F0 cells at 3.7 MBq, iv measured at 6 hrs post injection; assay type: ADME, organism-based; details: tumour
[10] = Ratio of drug uptake in tumor to blood in C57BL/6J mouse implanted with mouse B16F0 cells at 3.7 MBq, iv measured at 24 hrs post injection; assay type: ADME, organism-based
[11] = Drug uptake in kidney of C57BL/6J mouse implanted with mouse B16F0 cells at 3.7 MBq, iv measured at 72 hrs post injection by gamma counting analysis; assay type: ADME, organism-based; details: in vivo
[12] = Drug uptake in stomach of C57BL/6J mouse implanted with mouse B16F0 cells at 3.7 MBq, iv measured at 24 hrs post injection by gamma counting analysis; assay type: ADME, organism-based; details: in vivo
Mus musculus = experiment: Toxicity in C57BL/6J mouse assessed as lethargy at 3.7 MBq, iv measured up to 72 hrs post injection; assay type: organism-based; details: in vivo
[13] = Drug uptake in blood of C57BL/6J mouse implanted with mouse B16F0 cells at 3.7 MBq, iv measured at 72 hrs post injection by gamma counting analysis; assay type: ADME, organism-based; details: in vivo
[14] = Ratio of drug uptake in tumor to muscle in C57BL/6J mouse implanted with mouse B16F0 cells at 3.7 MBq, iv measured at 1 hr post injection; assay type: ADME, organism-based; details: in vivo
[15] = Drug uptake in tumor of C57BL/6J mouse implanted with mouse B16F0 cells at 3.7 MBq, iv measured at 24 hrs post injection by gamma counting analysis; assay type: ADME, organism-based, Neoplasm; details: in vivo
[16] = Ratio of drug uptake in tumor to blood in C57BL/6J mouse implanted with mouse B16F0 cells at 3.7 MBq, iv measured at 1 hr post injection; assay type: ADME, organism-based
[17] = Ratio of drug uptake in tumor to blood in C57BL/6J mouse implanted with mouse B16F0 cells at 3.7 MBq, iv measured at 3 hrs post injection; assay type: ADME, organism-based
[18] = Drug uptake in kidney of C57BL/6J mouse implanted with mouse B16F0 cells at 3.7 MBq, iv measured at 3 hrs post injection by gamma counting analysis; assay type: ADME, organism-based; details: in vivo
[19] = Drug uptake in muscles of C57BL/6J mouse implanted with mouse B16F0 cells at 3.7 MBq, iv measured at 1 hr post injection by gamma counting analysis; assay type: ADME, organism-based, Muscle tissue; details: in vivo
[20] = Drug uptake in intestine of C57BL/6J mouse implanted with mouse B16F0 cells at 3.7 MBq, iv measured at 1 hr post injection by gamma counting analysis; assay type: ADME, organism-based; details: in vivo
[21] = Ratio of drug uptake in tumor to muscle in C57BL/6J mouse implanted with mouse B16F0 cells at 3.7 MBq, iv measured at 72 hrs post injection; assay type: ADME, organism-based; details: in vivo
[22] = Drug level in blood of C57BL/6J mouse implanted with mouse B16F0 cells treated with [125I]IUdR-SS-MTP at 3.7 MBq, iv measured at 15 to 60 mins post injection by RP-HPLC analysis; assay type: ADME, organism-based; details: in vivo
[23] = Drug level in urine of C57BL/6J mouse implanted with mouse B16F0 cells treated with [125I]IUdR-SS-MTP at 3.7 MBq, iv measured at 15 to 60 mins post injection by RP-HPLC analysis; assay type: ADME, organism-based; details: in vivo
[24] = Drug level in tumor of C57BL/6J mouse implanted with mouse B16F0 cells treated with [125I]IUdR-SS-MTP at 3.7 MBq, iv measured at 15 to 60 mins post injection by RP-HPLC analysis; assay type: ADME, organism-based, Neoplasm; details: in vivo

| Ratio [1] | Drug uptake [2] [% ID/g] | Ratio [3] | Drug uptake [4] [% ID/g] | Drug uptake [5] | Drug uptake [6] [% ID/g] | Drug uptake [7] [% ID/g] | Drug uptake [8] [% ID/g] | Ratio [9] | Kp at 24 h [10] | Drug uptake [11] [% ID/g] | Drug uptake [12] [% ID/g] | Drug uptake [13] [% ID/g] | Ratio [14] | Drug uptake [15] [% ID/g] | Kp at 1 h [16] | Kp at 3 h [17] | Drug uptake [18] [% ID/g] | Drug uptake [19] [% ID/g] | SMILES | Activity (Mus musculus) | other results |
| --- | --- | --- | --- | --- | --- | --- | --- | --- | --- | --- | --- | --- | --- | --- | --- | --- | --- | --- | --- | --- | --- |
| 12.3 | 1.94 | 18.24 | 2.57 | Active | 0.08 | 2.75 | 0.78 | 2.08 | 5.63 | 0.32 | 1.01 | 1.94 | 4.84 | 0.72 | 1.11 | 1.07 | 1.89 | 0.47 | CCN(CC)CCNC(=O)c1cnc2cc(NC(=O)COc3ccc(SSCCOC(=O)O[C@H]4C[C@H](n5cc([125I])c(=O)[nH]c5=O)O[C@@H]4CO)cc3)ccc2n1 | Non-Toxic | Drug uptake [20]: 2.51 % ID/g; Ratio [21]: 5.28 |
| 10.66 | 1.19 | 24.35 | 1.49 | Active | 0.03 | 1.66 | 1.02 | 2.58 | 7.24 | 0.08 | 0.62 | 0.02 | 2.96 | 0.46 | 0.89 | 1.14 | 1.08 | 1.13 | O=c1[nH]c(=O)n([C@H]2C[C@H](O)[C@@H](CO)O2)cc1[125I] | Non-Toxic | Drug metabolism [22]: Metabolite_Detected; Drug metabolism [23]: Metabolite_Detected; Drug metabolism [24]: Metabolite_Detected; Drug uptake [20]: 1.62 % ID/g; Ratio [21]: 14.58 |
